Experimental data reported in patent US4746736A, “Carbapenem antibiotics” (priority 1986, dated 1988).
Values after ≈ are worked out from the molar mass of the structure shown. Structures can show the parent of a compound that is named as a salt. Where two headings read alike, the source gives them in different places.

Columns and labels:
[1] = system: S. aureus A-9606 (Pen-res.); test: In vitro MIC by tube dilution, S. aureus A-9606 (Pen-res.); assay type: cell-based; details: S. aureus A-9606 (Pen-res)
S. aureus A-9537 = test: In vitro MIC by tube dilution, S. aureus A-9537; assay type: cell-based
K. pneumoniae A20468 = test: In vitro MIC by tube dilution, K. pneumoniae A20468; assay type: cell-based
P. morganii A15153 = test: In vitro MIC by tube dilution, P. morganii (M. morganii) A15153; assay type: cell-based
E. coli A15119 = test: In vitro MIC by tube dilution, E. coli A15119; assay type: cell-based; details: E. coli A15119
S. faecalis A20688 = test: In vitro MIC by tube dilution, S. faecalis A20688; assay type: cell-based
E. cloacae A-9656 = test: In vitro MIC by tube dilution, E. cloacae A-9656; assay type: cell-based
S. pyogenes A9604 = test: In vitro MIC by tube dilution, S. pyogenes A9604; assay type: cell-based
S. marcescens A20019 = test: In vitro MIC by tube dilution, S. marcescens A20019; assay type: cell-based
K. pneumoniae A-9664 = test: In vitro MIC by tube dilution, K. pneumoniae A-9664; assay type: cell-based
P. aeruginosa A-9843A [2] = test: In vitro MIC by tube dilution, P. aeruginosa A-9843A; assay type: cell-based; details: P. aeruginosa A-9843a
E. cloacae A-9659 = test: In vitro MIC by tube dilution, E. cloacae A-9659; assay type: cell-based
P. mirabilis A-9900 = test: In vitro MIC by tube dilution, P. mirabilis A-9900; assay type: cell-based
[3] = Blood levels in mice after intramuscular administration; details: 20 mg/kg i.m., mice (compiled table)
Source text: Compounds were solubilized in 0.1 M phosphate buffer pH 7.
Values are from a single test; 4 mice used per compound.
Compounds were solubilized in 0.1 M phosphate buffer, pH 7.
Values based on a single test; 4 mice per compound.

P. aeruginosa A21213 = test: In vitro MIC by tube dilution, P. aeruginosa A21213; assay type: cell-based; details: P. aeruginosa A21213
P. rettgeri A22424 = test: In vitro MIC by tube dilution, P. rettgeri A22424; assay type: cell-based
S. pneumoniae A-9585 = test: In vitro MIC by tube dilution, S. pneumoniae A-9585; assay type: cell-based
P. aeruginosa A-9843a [4] = assay type: in vivo; details: P. aeruginosa A9843A, mice, i.m.
Procedure: The PD50 (dose in mg/kg required to give protection to 50% of the infected mice) is indicated.
Treatment Schedule: Except for E. coli A15119 and K. pneumoniae A9964,
mice were treated i.m. with drugs 0 and 2 hours postinfection.
5 mice per dose were used for each test
The PD50 (dose in mg/kg) required to give protection to 50% of the infected mice is indicated.

P. vulgaris A21559 = test: In vitro MIC by tube dilution, P. vulgaris A21559; assay type: cell-based; details: P. vulgaris A21559
E. coli A20341-1 = test: In vitro MIC by tube dilution, E. coli A20341-1; assay type: cell-based
H. influenzae A21522 = test: In vitro MIC by tube dilution, H. influenzae A21522; assay type: cell-based; details: Haemophilus influenzae
H. influenzae A20178 = test: In vitro MIC by tube dilution, H. influenzae A20178; assay type: cell-based; details: Haemophilus influenzae
H. influenzae A-9833 = test: In vitro MIC by tube dilution, H. influenzae A-9833; assay type: cell-based; details: Haemophilus influenzae, A9833
H. influenzae A21518 = test: In vitro MIC by tube dilution, H. influenzae A21518; assay type: cell-based; details: Haemophilus influenzae

3-[4-(N,N-dimethyl-1,2,3-triazolium)methylthio]-6α-[1-(R)-hydroxyethyl]-7-oxo-1-azabicyclo(3.2.0)hept-2-ene-2-carboxylate [Example 15 "B"]
MIC [1]: 0.008 µg/mL
MIC (S. aureus A-9537; S. aureus A-9537 +50% serum): 0.016 µg/mL
MIC (S. aureus A-9537; S. aureus A-9537, no serum): 0.004 µg/mL
MIC (K. pneumoniae A20468; K. pneumoniae A20468): 0.016 µg/mL
MIC (P. morganii A15153; M. morganii A15153): 0.06 µg/mL
MIC (E. coli A15119): 8 ng/mL
MIC (S. faecalis A20688; S. faecalis A20688): 0.5 µg/mL
MIC (E. cloacae A-9656; E. cloacae A-9656): 0.03 µg/mL
MIC (S. pyogenes A9604; S. pyogenes A-9604): 1 ng/mL
MIC (S. marcescens A20019): 16 ng/mL
MIC (K. pneumoniae A-9664): 0.03 µg/mL
MIC (P. aeruginosa A-9843A [2]): 2 µg/mL
MIC (E. cloacae A-9659; E. cloacae A-9659): 0.016 µg/mL
MIC (P. mirabilis A-9900; P. mirabilis A-9900): 0.03 µg/mL
AUC [3]: 7.4 µg·h/mL
Cmax [3]: 15.9 µg/mL
MIC (P. aeruginosa A21213): 0.13 µg/mL
MIC (P. rettgeri A22424; P. rettgeri A22424): 0.13 µg/mL
MIC (S. pneumoniae A-9585; S. pneumoniae A-9585): 0.5 ng/mL
PD50/treatment (P. aeruginosa A-9843a [4]): 0.89 mg/kg
MIC (P. vulgaris A21559): 8 ng/mL
MIC (E. coli A20341-1): 8 ng/mL

C[C@@H](O)[C@H]1C(=O)N2C(C(=O)[O-])=C(SCc3cc[n+](C)cc3)C[C@H]12 [Example 1, 1-Methyl-4-[2-carboxy-6α-[1(R)-hydroxyethyl]-7-oxo-1-azabicyclo[3.2.0]hept-2-en-3-thiomethyl]pyridinium hydroxide inner salt]
MIC (H. influenzae A21522): 8 µg/mL
MIC (H. influenzae A20178): 32 µg/mL

Cc1ccc[n+](C)c1CSC1=C(C(=O)[O-])N2C(=O)[C@H]([C@@H](C)O)[C@H]2C1 [Example 7, 3-(N-Methyl-3-methylpyridine-2-methanethio)-6α-[1-(R)-hydroxyethyl]-7-oxo-1-azabicyclo(3.2.0)hept-2-ene-2-carboxylate]
MIC ([1]; Staphylococcus aureus, read-out: MIC): 0.016 µg/mL (≈ 0.0459 µM)
MIC (S. aureus A-9537; Staphylococcus aureus, A9537, S. aureus A-9537 +50% serum, read-out: MIC): 0.03 µg/mL (≈ 0.0861 µM)
MIC (S. aureus A-9537; Staphylococcus aureus, A9537, S. aureus A-9537, no serum, read-out: MIC): 0.008 µg/mL (≈ 0.023 µM)
MIC (K. pneumoniae A20468; Klebsiella pneumoniae, A20468, K. pneumoniae A20468, read-out: MIC): 0.016 µg/mL (≈ 0.0459 µM)
MIC (H. influenzae A-9833): > 32 µg/mL
MIC (P. morganii A15153; Morganella morganii, A15153, M. morganii A15153, read-out: MIC): 0.016 µg/mL (≈ 0.0459 µM)
MIC (E. coli A15119; Escherichia coli, read-out: MIC): 4 ng/mL (≈ 0.0115 µM)
MIC (H. influenzae A21518): > 32 µg/mL
MIC (S. faecalis A20688; Enterococcus faecalis, A20688, S. faecalis A20688, read-out: MIC): 0.13 µg/mL (≈ 0.373 µM)
MIC (E. cloacae A-9656; Enterobacter cloacae, A9656, E. cloacae A-9656, read-out: MIC): 0.016 µg/mL (≈ 0.0459 µM)
MIC (S. pyogenes A9604; Streptococcus pyogenes, A9604, S. pyogenes A-9604, read-out: MIC): 4 ng/mL (≈ 0.0115 µM)
MIC (S. marcescens A20019; Serratia marcescens, read-out: MIC): 8 ng/mL (≈ 0.023 µM)
MIC (K. pneumoniae A-9664; Klebsiella pneumoniae, A9664, read-out: MIC): 0.016 µg/mL (≈ 0.0459 µM)
MIC (P. aeruginosa A-9843A [2]; Pseudomonas aeruginosa, A9843A, read-out: MIC): 1 µg/mL (≈ 2.87 µM)
MIC (E. cloacae A-9659; Enterobacter cloacae, A9659, E. cloacae A-9659, read-out: MIC): 0.016 µg/mL (≈ 0.0459 µM)
MIC (P. mirabilis A-9900; Proteus mirabilis, A9900, P. mirabilis A-9900, read-out: MIC): 0.016 µg/mL (≈ 0.0459 µM)
MIC (P. rettgeri A22424; Providencia rettgeri, A22424, P. rettgeri A22424, read-out: MIC): 0.06 µg/mL (≈ 0.172 µM)
MIC (S. pneumoniae A-9585; Streptococcus pneumoniae, A9585, S. pneumoniae A-9585, read-out: MIC): 4 ng/mL (≈ 0.0115 µM)
MIC (E. coli A20341-1; Escherichia coli, A203411, read-out: MIC): 4 ng/mL (≈ 0.0115 µM)
